Test system: NL-RLuc virus
Experiment: Inhibition of HIV replication (NL-RLuc reporter virus in MT-2 cells, luciferase readout)
Type: cell-based
Details: Human immunodeficiency virus 1, MT2, 120 h, read-out: Activity
Source text: Inhibition of HIV replication: A recombinant NL-RLuc proviral clone was constructed in which a section of the nef gene from NL4-3 was replaced with the Renilla Luciferase gene. This virus is fully infectious and can undergo multiple cycles of replication in cell culture. In addition, the luciferous reporter provides a simple and easy method for quantitating the extent of virus growth and consequently, the antiviral activity of test compounds. The plasmid pNLRLuc contains the proviral NL-Rluc DNA cloned into pUC18 at the PvuII site. The NL-RLuc virus was prepared by transfection of 293T cells with the plasmid pNLRLuc. Transfections were performed using the LipofectAMINE PLUS kit from Invitrogen (Carlsbad, Calif.) according to the manufacturer and the virus generated was titered in MT-2 cells. For susceptibility analyses, the titrated virus was used to infect MT-2 cells in the presence of compound, and after 5 days of incubation, cells were processed and quantitated for virus growth by the amount of expressed luciferase. Assay media was RPMI 1640 supplemented with 10% heat inactivated fetal bovine serum (FBS), 100 units/ml penicillin G/100 units/ml streptomycin, 10 mM HEPES buffer pH 7.55 and 2 mM L-glutamine. The results from at least 2 experiments were used to calculate the EC50 values. Luciferase was quantitated using the Dual Luciferase kit from Promega (Madison, Wis.). Susceptibility of viruses to compounds was determined by incubation in the presence of serial dilutions of the compound. The 50% effective concentration (EC50) was calculated by using the exponential form of the median effect equation where (Fa)=1/[1+(ED50/drug conc.)^m] (Johnson V A, Byington R T. Infectivity Assay. In Techniques in HIV Research. ed. Aldovini A, Walker B D. 71-76. New York: Stockton Press.1990). Activity equal to A refers to a compound having an EC50≤100 nM, while B and C denote compounds having an EC50 between 100 nM and 1 uM (B) or >1 uM (C).

Question: For `Cc1ccc(CN2CCc3cc(-c4c(C)nc(C)c([C@H](OC(C)(C)C)C(=O)O)c4N4CCC(C)(C)CC4)ccc3C2)c(C)c1` [Compound 19, (S)-2-(tert-butoxy)-2-(5-(2-(2,4-dimethylbenzyl)-1,2,3,4-tetrahydroisoquinolin-6-yl)-4-(4,4-dimethylpiperidin-1-yl)-2,6-dimethylpyridin-3-yl)acetic acid], which EC50 is on record?
Answer: < 0.1 µM

Question: Which EC50 does the source give for `Cc1nc(C)c([C@H](OC(C)(C)C)C(=O)O)c(N2CCC(C)(C)CC2)c1-c1ccc2c(c1)CCN(Cc1ccc(F)cc1F)C2` [Compound 20, (S)-2-(tert-butoxy)-2-(5-(2-(2,4-difluorobenzyl)-1,2,3,4-tetrahydroisoquinolin-6-yl)-4-(4,4-dimethylpiperidin-1-yl)-2,6-dimethylpyridin-3-yl)acetic acid] here?
Answer: < 0.1 µM

Question: Which EC50 does the source give for `Cc1nc(C)c([C@H](OC(C)(C)C)C(=O)O)c(N2CCC(C)(C)CC2)c1-c1ccc2c(c1)CCN(Cc1cccc(F)c1F)C2` [Compound 21, (S)-2-(tert-butoxy)-2-(5-(2-(2,3-difluorobenzyl)-1,2,3,4-tetrahydroisoquinolin-6-yl)-4-(4,4-dimethylpiperidin-1-yl)-2,6-dimethylpyridin-3-yl)acetic acid] here?
Answer: < 0.1 µM

Question: How did the EC50 turn out when `Cc1nc(C)c([C@H](OC(C)(C)C)C(=O)O)c(N2CCC(C)(C)CC2)c1-c1ccc2c(c1)CCN(Cc1ccc(Cl)c(F)c1)C2` [Compound 22, (S)-2-(tert-butoxy)-2-(5-(2-(4-chloro-3-fluorobenzyl)-1,2,3,4-tetrahydroisoquinolin-6-yl)-4-(4,4-dimethylpiperidin-1-yl)-2,6-dimethylpyridin-3-yl)acetic acid] was run?
Answer: < 0.1 µM

Question: With `Cc1cccc(Cl)c1CN1CCc2cc(-c3c(C)nc(C)c([C@H](OC(C)(C)C)C(=O)O)c3N3CCC(C)(C)CC3)ccc2C1` [Compound 23, (S)-2-(tert-butoxy)-2-(5-(2-(2-chloro-6-methylbenzyl)-1,2,3,4-tetrahydroisoquinolin-6-yl)-4-(4,4-dimethylpiperidin-1-yl)-2,6-dimethylpyridin-3-yl)acetic acid] as the molecule, how does the EC50 read?
Answer: < 0.1 µM

Question: How did the EC50 turn out when `Cc1nc(C)c([C@H](OC(C)(C)C)C(=O)O)c(N2CCC(C)(C)CC2)c1-c1ccc2c(c1)CCN(Cc1ccc(F)c(Cl)c1)C2` [Compound 24, (S)-2-(tert-butoxy)-2-(5-(2-(3-chloro-4-fluorobenzyl)-1,2,3,4-tetrahydroisoquinolin-6-yl)-4-(4,4-dimethylpiperidin-1-yl)-2,6-dimethylpyridin-3-yl)acetic acid] was run?
Answer: < 0.1 µM

Question: With `Cc1cc(F)ccc1CN1CCc2cc(-c3c(C)nc(C)c([C@H](OC(C)(C)C)C(=O)O)c3N3CCC(C)(C)CC3)ccc2C1` [Compound 25, (S)-2-(tert-butoxy)-2-(4-(4,4-dimethylpiperidin-1-yl)-5-(2-(4-fluoro-2-methylbenzyl)-1,2,3,4-tetrahydroisoquinolin-6-yl)-2,6-dimethylpyridin-3-yl)acetic acid] as the molecule, how does the EC50 read?
Answer: < 0.1 µM

Question: Which EC50 does the source give for `Cc1nc(C)c([C@H](OC(C)(C)C)C(=O)O)c(N2CCC(C)(C)CC2)c1-c1ccc2c(c1)CCN(Cc1cc(Cl)cc(Cl)c1)C2` [Compound 26, (S)-2-(tert-butoxy)-2-(5-(2-(3,5-dichlorobenzyl)-1,2,3,4-tetrahydroisoquinolin-6-yl)-4-(4,4-dimethylpiperidin-1-yl)-2,6-dimethylpyridin-3-yl)acetic acid] here?
Answer: < 0.1 µM

Question: Which EC50 does the source give for `Cc1nc(C)c([C@H](OC(C)(C)C)C(=O)O)c(N2CCC(C)(C)CC2)c1-c1ccc2c(c1)CCN(Cc1ccc(C(C)(C)C)cc1)C2` [Compound 27, (S)-2-(tert-butoxy)-2-(5-(2-(4-(tert-butyl)benzyl)-1,2,3,4-tetrahydroisoquinolin-6-yl)-4-(4,4-dimethylpiperidin-1-yl)-2,6-dimethylpyridin-3-yl)acetic acid] here?
Answer: < 0.1 µM

Question: `Cc1nc(C)c([C@H](OC(C)(C)C)C(=O)O)c(N2CCC(C)(C)CC2)c1-c1ccc2c(c1)CCN(Cc1cccc(Cl)c1)C2` [Compound 28, (S)-2-(tert-butoxy)-2-(5-(2-(3-chlorobenzyl)-1,2,3,4-tetrahydroisoquinolin-6-yl)-4-(4,4-dimethylpiperidin-1-yl)-2,6-dimethylpyridin-3-yl)acetic acid] was tested. Which EC50 did it give?
Answer: < 0.1 µM

Question: With `Cc1ccc(C)c(CN2CCc3cc(-c4c(C)nc(C)c([C@H](OC(C)(C)C)C(=O)O)c4N4CCC(C)(C)CC4)ccc3C2)c1` [Compound 29, (S)-2-(tert-butoxy)-2-(5-(2-(2,5-dimethylbenzyl)-1,2,3,4-tetrahydroisoquinolin-6-yl)-4-(4,4-dimethylpiperidin-1-yl)-2,6-dimethylpyridin-3-yl)acetic acid] as the molecule, how does the EC50 read?
Answer: < 0.1 µM

Question: `Cc1nc(C)c([C@H](OC(C)(C)C)C(=O)O)c(N2CCC(C)(C)CC2)c1-c1ccc2c(c1)CCN(Cc1c(F)cccc1C(F)(F)F)C2` [Compound 30, (S)-2-(tert-butoxy)-2-(4-(4,4-dimethylpiperidin-1-yl)-5-(2-(2-fluoro-6-(trifluoromethyl)benzyl)-1,2,3,4-tetrahydroisoquinolin-6-yl)-2,6-dimethylpyridin-3-yl)acetic acid] was tested. Which EC50 did it give?
Answer: < 0.1 µM

Question: With `Cc1nc(C)c([C@H](OC(C)(C)C)C(=O)O)c(N2CCC(C)(C)CC2)c1-c1ccc2c(c1)CCN(Cc1cc(F)cc(F)c1)C2` [Compound 31, (S)-2-(tert-butoxy)-2-(5-(2-(3,5-difluorobenzyl)-1,2,3,4-tetrahydroisoquinolin-6-yl)-4-(4,4-dimethylpiperidin-1-yl)-2,6-dimethylpyridin-3-yl)acetic acid] as the molecule, how does the EC50 read?
Answer: < 0.1 µM

Question: How did the EC50 turn out when `Cc1nc(C)c([C@H](OC(C)(C)C)C(=O)O)c(N2CCC(C)(C)CC2)c1-c1ccc2c(c1)CCN(Cc1cccc(C(F)(F)F)c1F)C2` [Compound 32, (S)-2-(tert-butoxy)-2-(4-(4,4-dimethylpiperidin-1-yl)-5-(2-(2-fluoro-3-(trifluoromethyl)benzyl)-1,2,3,4-tetrahydroisoquinolin-6-yl)-2,6-dimethylpyridin-3-yl)acetic acid] was run?
Answer: < 0.1 µM

Question: `Cc1cccc(C)c1CN1CCc2cc(-c3c(C)nc(C)c([C@H](OC(C)(C)C)C(=O)O)c3N3CCC(C)(C)CC3)ccc2C1` [Compound 33, (S)-2-(tert-butoxy)-2-(5-(2-(2,6-dimethylbenzyl)-1,2,3,4-tetrahydroisoquinolin-6-yl)-4-(4,4-dimethylpiperidin-1-yl)-2,6-dimethylpyridin-3-yl)acetic acid] was tested. Which EC50 did it give?
Answer: < 0.1 µM

Question: With `Cc1nc(C)c([C@H](OC(C)(C)C)C(=O)O)c(N2CCC(C)(C)CC2)c1-c1ccc2c(c1)CCN(Cc1cc(F)c(F)c(F)c1)C2` [Compound 34, (S)-2-(tert-butoxy)-2-(4-(4,4-dimethylpiperidin-1-yl)-2,6-dimethyl-5-(2-(3,4,5-trifluorobenzyl)-1,2,3,4-tetrahydroisoquinolin-6-yl)pyridin-3-yl)acetic acid] as the molecule, how does the EC50 read?
Answer: < 0.1 µM

Question: `Cc1nc(C)c([C@H](OC(C)(C)C)C(=O)O)c(N2CCC(C)(C)CC2)c1-c1ccc2c(c1)CCN(Cc1ccc(F)cc1Cl)C2` [Compound 35, (S)-2-(tert-butoxy)-2-(5-(2-(2-chloro-4-fluorobenzyl)-1,2,3,4-tetrahydroisoquinolin-6-yl)-4-(4,4-dimethylpiperidin-1-yl)-2,6-dimethylpyridin-3-yl)acetic acid] was tested. Which EC50 did it give?
Answer: < 0.1 µM

Same assay, conditions: Human immunodeficiency virus 1, MT2, 120 h, read-out: EC50 μM

Question: For `Cc1cccc(Cl)c1CN1CCc2cc(-c3c(C)nc(C)c([C@H](OC(C)(C)C)C(=O)O)c3N3CCC(C)(C)CC3)ccc2C1` [Compound 23, (S)-2-(tert-butoxy)-2-(5-(2-(2-chloro-6-methylbenzyl)-1,2,3,4-tetrahydroisoquinolin-6-yl)-4-(4,4-dimethylpiperidin-1-yl)-2,6-dimethylpyridin-3-yl)acetic acid], which EC50 is on record?
Answer: 0.003 µM

Question: With `Cc1nc(C)c([C@H](OC(C)(C)C)C(=O)O)c(N2CCC(C)(C)CC2)c1-c1ccc2c(c1)CCN(Cc1cc(F)cc(F)c1)C2` [Compound 31, (S)-2-(tert-butoxy)-2-(5-(2-(3,5-difluorobenzyl)-1,2,3,4-tetrahydroisoquinolin-6-yl)-4-(4,4-dimethylpiperidin-1-yl)-2,6-dimethylpyridin-3-yl)acetic acid] as the molecule, how does the EC50 read?
Answer: 0.011 µM

— patent publication US10189816B2, “Substituted pyridines as inhibitors of human immunodeficiency virus replication” (priority 2015, dated 2019)
